Test results taken from patent US5846937A, “Method of using exendin and GLP-1 to affect the central nervous system” (1149336 Ontario Inc., priority 1997, dated 1998).

Key:
rats = conditions: ICV administration; cited from earlier work
[1] = system: GLP-1R^(-/-) knockout mice; test: Line test (locomotor activity) after ICV injection, GLP-1R knockout mice; assay type: in vivo; conditions: GLP-1R knockout mice fasted overnight; ICV 5 μl; GLP-1 5 μg, Exendin(9-39) amide 10 μg, Exendin-4 amide 15 μg
Description: GLP-1R^(-/-) knockout age-matched male mice, produced as described above in example 1, were bred in the Toronto Hospital animal facility. All mice were fed a diet of ad libitum access to standard laboratory rat chow and tap water.
(§1) All mice were faster overnight 16 hours prior to the start of the experiment. Mice were lightly anesthetized by placing them in a covered beaker with 800 μl of Methoxyflurane (Metofane, Jannsen Pharmaceuticals) for approximately 3 minutes. Peptides were delivered into the ventricles by ICV injection using a 2.5 mm×30 gauge needle attached to a Hamilton syringe. All test peptides were dissolved in phosphate buffered saline.
(§2) Following ICV administration of GLP-1 [5 μg/5 μl; Glucagon-like Peptide 1 (7-36) amide, human, lot # AM680, Bachem California, Torrence, Calif.], Exendin(9-39) amide (10 μg/5 μl; lot # ZN136, Bachem California, Torrence, Calif.), Exendin-4 amide (15 μg/5 μl; kit # 506189, Bachem California, Torrence, Calif.), or PBS, mice were placed into individual cages for the period of observation.
(§3) To record food intake, mice were given a pre-weighed (approx. 3 g) amount of rodent chow when all members of a test group appeared fully alert, generally about 20-30 minutes after ICV injection.
(§4) Approximately 15-20 min. after the mice had begun to eat, or no longer than 30 min. following the addition of the pre-weighed rodent chow to the cages, the parameter of arousal/sedation was assessed, namely mice were assessed for locomotor activity by measuring the number of times each animal crossed over a line that was placed in the center of the cage (line test).
(§5) The Locomotor activity was assessed for 3×30 min consecutive periods. The data for the first 30 minutes observation period is shown in the accompanying FIG. 1.

[2] = system: Wild-type (+/+), male CD1 mice; test: Line test (locomotor activity) after ICV injection, wild-type mice; assay type: in vivo; conditions: wild-type mice fasted overnight; ICV 5 μl; GLP-1 5 μg, Exendin(9-39) amide 10 μg, Exendin-4 amide 15 μg
Description: Male CD1 mice were used for these experiments. Wild-type (+/+), male CD1 mice (approx. 11 weeks old) were obtained from Charles River Canada (Quebec). Mice were acclimatized to the animal facility for several days prior to use in the actual experiments.
as §1, with “saline. Mice were given 5 μl ICV injections of the test peptides or saline, following which they were observed closely for 3 hours.” for “saline.”
as §2, §3, §4, §5

normal wildtype mice = test: Dose response experiment, line test after ICV injection, non-fasted mice; assay type: in vivo; conditions: for mean number of line crossings: not fasted, saline control 66.8
Description: A dose response experiment was performed to compare the specific activities of exendin and GLP-1 peptides. Additionally, this experiment was designed to eliminate the possibility that the sedative response was connected to any feeding behavior. Therefore, mice were not fasted prior to the experiment, and were instead allowed food and water ad libitum throughout their dark cycle. At the beginning of the light cycle, food was removed and peptides administered. Exendin or GLP-1 peptide, obtained as described above, were each injected ICV into normal wildtype mice at a concentration of 0.5, 1.0, 5.0 or 10.0 μg per 5 μl, and locomotor activity assessed as above.

Substance	food intake / feeding (rats)	locomotor activity / lethargy [1]	locomotor activity (number of line cross events) [2]	mean number of line crossings (normal wildtype mice; 0.5 μg per 5 μl ICV (lowest dose))	potency relative to GLP-1 on a weight (μg) basis (normal wildtype mice; sedative effect in the mammalian central nervous system, ICV)	locomotor activity (rats)	mean number of line crossings (normal wildtype mice; 10 μg per 5 μl ICV (highest dose))
Exendin(9-39) amide	doubled food intake	induced lethargy	greatly increased locomotor activity				
Exendin-4 amide [exendin 4]		induced lethargy and reduced movement	clear and marked decreased number of line cross events	11.5	at least 20 fold		
Glucagon-like Peptide 1 (7-36) amide [GLP-1]	inhibits feeding	did not	exhibited the same tendency			reduction in locomotor activity	24
